Each block holds one compound with its values, some of them ahead of it.
What was measured:
[1] = biological target: Protein-tyrosine kinase 6 (Homo sapiens, UniProt Q13882); test: Selectivity interaction (Ambit KINOMEscan and KiNATiv profiling in Jurkat cells) EUB0000090b PTK6; assay type: cell-based; settings: at 1 µM
[2] = biological target: T1, Serine/threonine-protein kinase TNNI3K (Homo sapiens) (UniProt Q59H18); test: Selectivity interaction (KinomeScan (DiscoverX)) EUB0000607a TNNI3K; settings: at 10 µM
T1 sequence (whole entry): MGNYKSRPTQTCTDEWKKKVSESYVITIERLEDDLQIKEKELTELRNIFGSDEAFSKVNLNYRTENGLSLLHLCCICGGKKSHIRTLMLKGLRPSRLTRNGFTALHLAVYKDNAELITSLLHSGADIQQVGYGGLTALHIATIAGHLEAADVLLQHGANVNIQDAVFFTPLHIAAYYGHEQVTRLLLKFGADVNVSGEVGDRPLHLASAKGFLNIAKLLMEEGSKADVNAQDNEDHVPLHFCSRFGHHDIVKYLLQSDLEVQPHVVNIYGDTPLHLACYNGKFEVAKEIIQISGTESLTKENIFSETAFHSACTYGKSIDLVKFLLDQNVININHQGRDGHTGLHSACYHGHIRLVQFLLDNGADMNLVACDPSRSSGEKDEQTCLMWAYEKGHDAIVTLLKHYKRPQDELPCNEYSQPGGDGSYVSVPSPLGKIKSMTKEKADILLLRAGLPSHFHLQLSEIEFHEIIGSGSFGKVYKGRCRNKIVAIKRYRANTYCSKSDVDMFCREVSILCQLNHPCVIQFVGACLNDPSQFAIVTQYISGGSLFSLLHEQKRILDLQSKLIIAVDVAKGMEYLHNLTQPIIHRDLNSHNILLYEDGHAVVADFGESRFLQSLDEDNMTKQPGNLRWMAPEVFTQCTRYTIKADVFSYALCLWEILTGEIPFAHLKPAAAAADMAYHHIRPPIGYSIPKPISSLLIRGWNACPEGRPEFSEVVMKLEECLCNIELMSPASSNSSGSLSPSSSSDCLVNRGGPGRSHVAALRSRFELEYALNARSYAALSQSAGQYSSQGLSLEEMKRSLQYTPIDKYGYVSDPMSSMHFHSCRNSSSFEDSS

[3] = biological target: Platelet-derived growth factor receptor alpha (Homo sapiens, UniProt P16234); test: Selectivity interaction (KinomeScan (DiscoverX)) EUB0001619a PDGFRA; settings: at 1 µM
[4] = biological target: TRAF2 and NCK-interacting protein kinase (Homo sapiens) (UniProt Q9UKE5); test: Selectivity interaction (ActivX KiNativ screen (ex vivo kinase selectivity in human PBMCs)) EUB0001619a TNIK; assay type: cell-based; settings: PBMC, at 1 µM
[5] = biological target: SRSF protein kinase 3 (Homo sapiens) (UniProt Q9UPE1); test: Selectivity interaction (Upstate Kinase Profiler service (Millipore)) EUB0000056c SRPK3; settings: at 1 µM
[6] = biological target: T2, cAMP-dependent protein kinase catalytic subunit PRKX (Homo sapiens) (UniProt P51817); settings: at 10 µM
T2 sequence (whole entry): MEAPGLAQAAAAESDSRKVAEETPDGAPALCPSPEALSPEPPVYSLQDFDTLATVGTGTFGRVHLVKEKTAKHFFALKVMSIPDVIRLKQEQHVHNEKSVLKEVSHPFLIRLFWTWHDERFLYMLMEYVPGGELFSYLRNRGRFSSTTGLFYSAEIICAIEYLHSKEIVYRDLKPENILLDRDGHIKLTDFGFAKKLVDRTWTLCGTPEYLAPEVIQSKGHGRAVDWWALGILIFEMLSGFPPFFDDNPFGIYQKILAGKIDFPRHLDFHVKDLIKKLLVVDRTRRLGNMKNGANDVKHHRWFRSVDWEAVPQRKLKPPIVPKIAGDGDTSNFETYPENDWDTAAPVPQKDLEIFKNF

[7] = biological target: T3, SNF-related serine/threonine-protein kinase (Homo sapiens) (UniProt Q9NRH2); settings: at 10 µM
T3 sequence (whole entry): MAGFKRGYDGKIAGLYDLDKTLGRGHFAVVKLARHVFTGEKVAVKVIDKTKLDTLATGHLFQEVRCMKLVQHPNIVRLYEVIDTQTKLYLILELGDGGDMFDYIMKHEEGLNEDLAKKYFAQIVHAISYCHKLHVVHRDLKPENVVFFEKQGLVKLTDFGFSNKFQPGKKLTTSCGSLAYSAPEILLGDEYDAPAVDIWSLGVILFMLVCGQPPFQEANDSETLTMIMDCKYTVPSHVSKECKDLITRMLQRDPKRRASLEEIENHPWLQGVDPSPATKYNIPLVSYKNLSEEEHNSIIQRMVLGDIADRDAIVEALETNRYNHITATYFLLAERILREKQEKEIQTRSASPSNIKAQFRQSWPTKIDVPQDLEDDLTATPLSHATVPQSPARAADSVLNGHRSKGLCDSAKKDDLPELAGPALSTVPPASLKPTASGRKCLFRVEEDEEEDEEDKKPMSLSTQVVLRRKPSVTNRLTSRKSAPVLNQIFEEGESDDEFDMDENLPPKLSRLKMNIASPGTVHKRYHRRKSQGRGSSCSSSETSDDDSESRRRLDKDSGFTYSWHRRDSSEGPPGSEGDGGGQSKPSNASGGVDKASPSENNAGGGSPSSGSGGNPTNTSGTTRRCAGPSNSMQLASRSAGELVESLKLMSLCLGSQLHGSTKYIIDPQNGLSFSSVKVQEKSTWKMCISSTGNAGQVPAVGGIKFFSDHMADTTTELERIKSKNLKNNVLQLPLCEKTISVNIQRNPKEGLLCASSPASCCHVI

[8] = biological target: Cyclin-dependent kinase 1/cyclin B (Homo sapiens) (UniProt P06493+P14635+Q8WWL7+O95067); test: Selectivity interaction (Kinase panel (Invitrogen)) EUB0000639a CDK1; assay type: protein-complex assay; settings: at 200 nM
[9] = biological target: Serine/threonine-protein kinase 10 (Homo sapiens) (UniProt O94804); test: Selectivity interaction (KinomeScan (DiscoverX)) EUB0000229b STK10; settings: at 10 µM
[10] = biological target: Protein kinase C beta type (Homo sapiens, UniProt P05771); test: Selectivity interaction (ProQinase) EUB0000171b PRKCB; settings: at 1 µM
[11] = biological target: Maternal embryonic leucine zipper kinase (Homo sapiens) (UniProt Q14680); test: Selectivity interaction (KinomeScan (DiscoverX)) EUB0000092b MELK; settings: at 10 µM
[12] = biological target: Serine/threonine-protein kinase PAK 4 (Homo sapiens, UniProt O96013); test: Selectivity interaction (KinomeScan (DiscoverX)) EUB0000092b PAK4; settings: at 10 µM
Sequence of Serine/threonine-protein kinase PAK 4 (O96013 whole entry, looked up): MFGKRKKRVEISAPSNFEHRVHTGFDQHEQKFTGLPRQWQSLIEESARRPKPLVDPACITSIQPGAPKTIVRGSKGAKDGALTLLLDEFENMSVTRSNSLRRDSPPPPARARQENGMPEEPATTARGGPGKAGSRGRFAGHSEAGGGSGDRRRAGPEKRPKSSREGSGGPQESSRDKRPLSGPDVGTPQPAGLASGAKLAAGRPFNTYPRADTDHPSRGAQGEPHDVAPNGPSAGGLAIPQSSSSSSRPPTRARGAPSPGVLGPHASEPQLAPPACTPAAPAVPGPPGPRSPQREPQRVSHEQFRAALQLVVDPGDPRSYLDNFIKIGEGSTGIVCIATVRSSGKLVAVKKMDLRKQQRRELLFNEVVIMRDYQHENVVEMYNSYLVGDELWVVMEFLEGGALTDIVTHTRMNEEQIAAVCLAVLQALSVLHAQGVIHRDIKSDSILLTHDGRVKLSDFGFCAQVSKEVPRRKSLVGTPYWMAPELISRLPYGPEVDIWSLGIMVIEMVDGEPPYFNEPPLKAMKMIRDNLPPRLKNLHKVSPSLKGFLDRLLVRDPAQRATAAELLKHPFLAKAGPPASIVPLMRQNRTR

Sequence of TRAF2 and NCK-interacting protein kinase (Homo sapiens) (Q9UKE5 whole entry, looked up): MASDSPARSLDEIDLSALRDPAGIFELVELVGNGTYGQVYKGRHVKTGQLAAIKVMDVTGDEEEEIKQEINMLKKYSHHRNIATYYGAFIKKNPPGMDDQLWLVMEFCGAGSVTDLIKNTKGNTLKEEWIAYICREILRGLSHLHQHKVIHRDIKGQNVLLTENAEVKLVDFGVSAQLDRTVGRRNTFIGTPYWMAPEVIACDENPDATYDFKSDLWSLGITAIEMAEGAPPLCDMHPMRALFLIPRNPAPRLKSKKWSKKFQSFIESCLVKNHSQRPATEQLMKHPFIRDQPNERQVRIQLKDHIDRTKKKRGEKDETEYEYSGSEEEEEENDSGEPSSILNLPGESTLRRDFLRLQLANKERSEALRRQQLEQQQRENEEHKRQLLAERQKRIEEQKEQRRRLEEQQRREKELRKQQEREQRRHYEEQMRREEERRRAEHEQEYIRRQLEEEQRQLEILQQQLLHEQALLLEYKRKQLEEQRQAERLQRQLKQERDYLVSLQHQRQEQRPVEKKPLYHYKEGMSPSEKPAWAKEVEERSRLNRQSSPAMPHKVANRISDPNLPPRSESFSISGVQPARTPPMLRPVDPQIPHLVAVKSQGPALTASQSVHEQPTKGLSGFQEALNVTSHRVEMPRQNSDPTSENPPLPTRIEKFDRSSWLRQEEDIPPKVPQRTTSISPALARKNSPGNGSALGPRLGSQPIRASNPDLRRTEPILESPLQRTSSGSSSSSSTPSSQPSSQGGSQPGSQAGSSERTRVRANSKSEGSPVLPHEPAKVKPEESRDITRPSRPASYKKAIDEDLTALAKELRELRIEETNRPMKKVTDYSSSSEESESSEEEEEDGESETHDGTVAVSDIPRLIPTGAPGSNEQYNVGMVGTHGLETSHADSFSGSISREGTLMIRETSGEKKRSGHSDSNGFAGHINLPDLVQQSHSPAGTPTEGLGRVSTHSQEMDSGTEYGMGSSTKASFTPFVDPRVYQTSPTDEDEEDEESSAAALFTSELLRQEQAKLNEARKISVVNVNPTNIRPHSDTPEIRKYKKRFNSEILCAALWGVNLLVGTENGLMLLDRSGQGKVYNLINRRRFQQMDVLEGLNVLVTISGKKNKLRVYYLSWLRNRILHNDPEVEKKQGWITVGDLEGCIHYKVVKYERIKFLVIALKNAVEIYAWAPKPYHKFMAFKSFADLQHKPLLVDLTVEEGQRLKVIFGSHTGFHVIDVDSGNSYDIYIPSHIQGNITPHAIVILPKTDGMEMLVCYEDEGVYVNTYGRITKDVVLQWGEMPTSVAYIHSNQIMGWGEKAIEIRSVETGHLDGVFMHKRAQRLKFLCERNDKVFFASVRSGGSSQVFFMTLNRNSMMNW
Sequence of Maternal embryonic leucine zipper kinase (Homo sapiens) (Q14680 whole entry, looked up): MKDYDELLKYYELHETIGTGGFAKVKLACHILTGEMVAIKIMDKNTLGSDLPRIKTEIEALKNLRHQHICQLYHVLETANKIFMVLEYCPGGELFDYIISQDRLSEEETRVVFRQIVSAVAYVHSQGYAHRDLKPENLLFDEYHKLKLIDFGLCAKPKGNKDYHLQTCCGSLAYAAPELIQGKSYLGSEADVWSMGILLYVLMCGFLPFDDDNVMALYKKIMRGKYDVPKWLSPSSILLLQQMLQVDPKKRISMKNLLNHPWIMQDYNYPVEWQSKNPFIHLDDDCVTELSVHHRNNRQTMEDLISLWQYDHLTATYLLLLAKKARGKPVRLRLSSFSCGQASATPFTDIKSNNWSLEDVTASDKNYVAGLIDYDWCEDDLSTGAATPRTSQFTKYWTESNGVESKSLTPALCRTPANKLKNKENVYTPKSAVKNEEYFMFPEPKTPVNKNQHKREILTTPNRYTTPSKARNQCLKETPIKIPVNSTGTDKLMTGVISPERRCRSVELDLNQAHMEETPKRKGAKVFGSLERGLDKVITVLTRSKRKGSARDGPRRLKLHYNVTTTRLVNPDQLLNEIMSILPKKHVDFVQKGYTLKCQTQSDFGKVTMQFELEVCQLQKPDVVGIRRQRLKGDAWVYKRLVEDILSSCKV
Sequence of Serine/threonine-protein kinase 10 (Homo sapiens) (O94804 whole entry, looked up): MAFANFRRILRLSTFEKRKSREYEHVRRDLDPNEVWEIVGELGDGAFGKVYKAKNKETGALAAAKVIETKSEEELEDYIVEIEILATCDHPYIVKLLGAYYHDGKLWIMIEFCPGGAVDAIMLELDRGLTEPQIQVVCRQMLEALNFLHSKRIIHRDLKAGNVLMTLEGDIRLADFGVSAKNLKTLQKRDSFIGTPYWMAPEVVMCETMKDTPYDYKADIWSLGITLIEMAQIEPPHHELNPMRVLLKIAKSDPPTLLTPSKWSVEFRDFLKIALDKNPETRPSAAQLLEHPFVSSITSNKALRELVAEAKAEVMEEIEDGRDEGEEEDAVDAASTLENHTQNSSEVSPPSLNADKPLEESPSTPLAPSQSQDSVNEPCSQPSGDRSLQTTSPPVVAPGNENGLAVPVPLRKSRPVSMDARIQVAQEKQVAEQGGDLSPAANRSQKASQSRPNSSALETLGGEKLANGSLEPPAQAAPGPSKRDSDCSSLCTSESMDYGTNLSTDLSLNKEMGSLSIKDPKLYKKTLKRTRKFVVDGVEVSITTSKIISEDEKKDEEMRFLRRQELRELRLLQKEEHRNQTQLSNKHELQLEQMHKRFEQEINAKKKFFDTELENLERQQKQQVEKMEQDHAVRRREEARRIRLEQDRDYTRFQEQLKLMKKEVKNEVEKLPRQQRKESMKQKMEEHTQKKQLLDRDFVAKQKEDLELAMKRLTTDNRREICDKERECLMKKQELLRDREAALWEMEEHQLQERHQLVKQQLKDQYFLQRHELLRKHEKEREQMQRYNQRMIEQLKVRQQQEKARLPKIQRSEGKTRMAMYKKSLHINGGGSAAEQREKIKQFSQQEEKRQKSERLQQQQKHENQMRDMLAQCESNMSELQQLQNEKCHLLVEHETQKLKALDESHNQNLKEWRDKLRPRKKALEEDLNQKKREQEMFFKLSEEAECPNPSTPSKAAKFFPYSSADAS
Sequence of Protein kinase C beta type (P05771 2-671 limits assumed): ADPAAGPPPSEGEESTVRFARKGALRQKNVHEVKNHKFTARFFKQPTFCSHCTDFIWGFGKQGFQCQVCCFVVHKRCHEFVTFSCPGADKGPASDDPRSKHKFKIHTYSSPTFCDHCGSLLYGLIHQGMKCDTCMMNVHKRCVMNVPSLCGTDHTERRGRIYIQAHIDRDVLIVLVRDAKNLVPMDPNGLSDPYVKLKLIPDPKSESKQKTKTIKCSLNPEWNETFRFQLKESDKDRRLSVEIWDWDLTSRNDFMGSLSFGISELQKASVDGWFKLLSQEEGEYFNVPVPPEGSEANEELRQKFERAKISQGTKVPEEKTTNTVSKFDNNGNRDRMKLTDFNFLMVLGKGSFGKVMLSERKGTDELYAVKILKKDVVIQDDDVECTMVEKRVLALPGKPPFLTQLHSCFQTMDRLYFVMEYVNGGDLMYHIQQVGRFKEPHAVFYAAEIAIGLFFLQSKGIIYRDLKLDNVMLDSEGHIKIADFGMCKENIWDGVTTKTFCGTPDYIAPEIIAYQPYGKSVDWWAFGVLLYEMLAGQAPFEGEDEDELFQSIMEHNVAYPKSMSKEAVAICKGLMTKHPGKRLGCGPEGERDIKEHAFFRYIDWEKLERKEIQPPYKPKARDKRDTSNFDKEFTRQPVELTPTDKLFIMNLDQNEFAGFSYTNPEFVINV
Sequence of Protein-tyrosine kinase 6 (Q13882 whole entry, looked up): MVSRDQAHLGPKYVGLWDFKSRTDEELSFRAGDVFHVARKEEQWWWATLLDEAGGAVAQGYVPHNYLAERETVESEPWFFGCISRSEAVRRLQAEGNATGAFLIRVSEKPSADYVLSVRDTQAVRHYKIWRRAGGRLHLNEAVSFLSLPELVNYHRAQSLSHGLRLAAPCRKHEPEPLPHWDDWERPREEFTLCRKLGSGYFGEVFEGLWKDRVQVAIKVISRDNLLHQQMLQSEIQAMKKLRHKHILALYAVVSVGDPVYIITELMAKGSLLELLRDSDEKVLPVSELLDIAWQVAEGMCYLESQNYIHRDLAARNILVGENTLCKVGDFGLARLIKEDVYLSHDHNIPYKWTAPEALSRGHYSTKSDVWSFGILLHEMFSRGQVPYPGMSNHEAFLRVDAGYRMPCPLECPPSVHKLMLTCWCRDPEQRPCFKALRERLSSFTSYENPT

Structure (SMILES): CN(C)C/C=C/C(=O)Nc1ccc(C(=O)N2CCCC(Nc3ncc(Cl)c(-c4c[nH]c5ccccc45)n3)C2)cc1 (configuration not stated)
% of control [1]: 84%

Structure (SMILES): CNC(=O)Nc1ccc(-c2nc(N3CC4CCC(C3)O4)c3cnn(C4CCC5(CC4)OCCO5)c3n2)cc1
% of control [2]: 59%

Structure (SMILES): N#Cc1cccc(-c2c[nH]c3ncnc(N4CCOCC4)c23)c1
% of control [3]: 100%
% of inhibition [4]: 29%

% of inhibition [5]: 36%
Structure (SMILES): Cc1ccc(-c2ccc3c(ccc4sc5c(c43)NC[C@@H](C)NC5=O)n2)cn1

Structure (SMILES): Cc1cc([C@@H](C)Nc2ccccc2C(=O)O)c2nc(N3CCOCC3)cc(=O)n2c1 [AZD-6482]
% of control [6]: 91%
% of control [7]: 89%

% of inhibition [8]: 11.5%
Structure (SMILES): CC[C@@H]1[C@H](F)C(=O)N[C@@H]1COc1nccc2cc(C(N)=O)c(OC)cc12 [ZIMLOVISERTIB]

Structure (SMILES): COc1cc(N(C)c2ccnc3ccc(C(F)(F)F)cc23)cc(OC)c1OC
% binding [9]: 84%

% of control [10]: 103%
Structure (SMILES): C=CC(=O)Nc1cccc(C(=O)Nc2ccc(Nc3cc(-c4[nH]c(SC)nc4C)ccn3)cc2)c1

Structure (SMILES): CCC(=O)N1CCN(c2ccc(-n3c(=O)ccc4cnc5ccc(-c6cnc7ccccc7c6)cc5c43)cc2C(F)(F)F)CC1
% of control [11]: 50%
% of control [12]: 100%
